Measurements taken from PubChem BioAssay (NCI).
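Results reflect a 48-hour exposure of cells in 96-well plates to compound at five concentrations. TGI marks complete inhibition of growth.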

What was measured:
Experiment in all cases: NCI tumour cell line growth inhibition, 48 h
M14 melanoma = tested on: M14 melanoma
MALME-3M melanoma = tested on: MALME-3M melanoma
UACC-62 melanoma = tested on: UACC-62 melanoma
786-0 renal = tested on: 786-0 renal
T-47D breast = tested on: T-47D breast
DU-145 prostate = tested on: DU-145 prostate
HOP-62 NSCLC = tested on: HOP-62 NSCLC
HL-60(TB) leukemia = tested on: HL-60(TB) leukemia
EKVX NSCLC = tested on: EKVX NSCLC
NCI-H522 lung = tested on: NCI-H522 lung
OVCAR-4 ovarian = tested on: OVCAR-4 ovarian
OVCAR-8 ovarian = tested on: OVCAR-8 ovarian
BT-549 breast = tested on: BT-549 breast
SK-MEL-28 melanoma = tested on: SK-MEL-28 melanoma
COLO 205 colon = tested on: COLO 205 colon
ACHN renal = tested on: ACHN renal
SK-MEL-2 melanoma = tested on: SK-MEL-2 melanoma
HT29 colon = tested on: HT29 colon
LOX IMVI melanoma = tested on: LOX IMVI melanoma
A549 NSCLC = tested on: A549 NSCLC
MCF7 breast = tested on: MCF7 breast
SNB-19 CNS = tested on: SNB-19 CNS
MDA-MB-435 = tested on: MDA-MB-435
MOLT-4 leukemia = tested on: MOLT-4 leukemia
NCI-H226 lung = tested on: NCI-H226 lung
RXF 393 renal = tested on: RXF 393 renal
UO-31 renal = tested on: UO-31 renal
SF-268 CNS = tested on: SF-268 CNS
SK-MEL-5 melanoma = tested on: SK-MEL-5 melanoma
HS 578T breast = tested on: HS 578T breast
K-562 leukemia = tested on: K-562 leukemia
SR leukemia = tested on: SR leukemia
RPMI-8226 leukemia = tested on: RPMI-8226 leukemia
PC-3 prostate = tested on: PC-3 prostate
HOP-92 NSCLC = tested on: HOP-92 NSCLC
SK-OV-3 ovarian = tested on: SK-OV-3 ovarian
IGROV1 ovarian = tested on: IGROV1 ovarian
KM12 colon = tested on: KM12 colon
MDA-MB-231 breast = tested on: MDA-MB-231 breast
MDA-N = tested on: MDA-N
SF-295 CNS = tested on: SF-295 CNS
OVCAR-3 ovarian = tested on: OVCAR-3 ovarian
OVCAR-5 ovarian = tested on: OVCAR-5 ovarian
SW-620 colon = tested on: SW-620 colon
A498 renal = tested on: A498 renal
NCI-H23 lung = tested on: NCI-H23 lung
CAKI-1 renal = tested on: CAKI-1 renal
SN12C renal = tested on: SN12C renal
U251 CNS = tested on: U251 CNS
HCT-15 colon = tested on: HCT-15 colon
HCT-116 colon = tested on: HCT-116 colon
NCI/ADR-RES ovarian = tested on: NCI/ADR-RES ovarian
UACC-257 melanoma = tested on: UACC-257 melanoma
NCI-H460 lung = tested on: NCI-H460 lung
SF-539 CNS = tested on: SF-539 CNS
HCC-2998 colon = tested on: HCC-2998 colon
SNB-75 CNS = tested on: SNB-75 CNS
TK-10 renal = tested on: TK-10 renal
CCRF-CEM leukemia = tested on: CCRF-CEM leukemia

Measured: TGI

COC(=O)C(O)P(=O)(OC)OC (stereo unspecified)
> 100 µM: M14 melanoma | MALME-3M melanoma | UACC-62 melanoma | 786-0 renal | T-47D breast | DU-145 prostate | HOP-62 NSCLC | HL-60(TB) leukemia | EKVX NSCLC | NCI-H522 lung | OVCAR-4 ovarian | OVCAR-8 ovarian | BT-549 breast | SK-MEL-28 melanoma | COLO 205 colon | ACHN renal | SK-MEL-2 melanoma | HT29 colon | LOX IMVI melanoma | A549 NSCLC | MCF7 breast | SNB-19 CNS | MDA-MB-435 | MOLT-4 leukemia | NCI-H226 lung | RXF 393 renal | UO-31 renal | SF-268 CNS | SK-MEL-5 melanoma | HS 578T breast | K-562 leukemia | SR leukemia | RPMI-8226 leukemia | PC-3 prostate | HOP-92 NSCLC | SK-OV-3 ovarian | IGROV1 ovarian | KM12 colon | MDA-MB-231 breast | MDA-N | SF-295 CNS | OVCAR-3 ovarian | OVCAR-5 ovarian | SW-620 colon | A498 renal | NCI-H23 lung | CAKI-1 renal | SN12C renal | U251 CNS | HCT-15 colon | HCT-116 colon | NCI/ADR-RES ovarian | UACC-257 melanoma

CC1(C)C(=O)C(C)(C)C12SSC1(S2)C(C)(C)C(=O)C1(C)C
21.1 µM: HL-60(TB) leukemia
> 100 µM: M14 melanoma | MALME-3M melanoma | UACC-62 melanoma | 786-0 renal | T-47D breast | DU-145 prostate | HOP-62 NSCLC | EKVX NSCLC | NCI-H460 lung | OVCAR-4 ovarian | OVCAR-8 ovarian | BT-549 breast | SK-MEL-28 melanoma | COLO 205 colon | ACHN renal | SK-MEL-2 melanoma | HT29 colon | LOX IMVI melanoma | A549 NSCLC | MCF7 breast | SNB-19 CNS | MDA-MB-435 | SF-539 CNS | MOLT-4 leukemia | NCI-H226 lung | UO-31 renal | SF-268 CNS | SK-MEL-5 melanoma | HS 578T breast | K-562 leukemia | SR leukemia | HCC-2998 colon | RPMI-8226 leukemia | SNB-75 CNS | PC-3 prostate | HOP-92 NSCLC | SK-OV-3 ovarian | IGROV1 ovarian | KM12 colon | MDA-MB-231 breast | MDA-N | SF-295 CNS | OVCAR-3 ovarian | OVCAR-5 ovarian | SW-620 colon | A498 renal | TK-10 renal | NCI-H23 lung | CAKI-1 renal | SN12C renal | U251 CNS | HCT-15 colon | HCT-116 colon | NCI/ADR-RES ovarian | UACC-257 melanoma

CC1(C)CC(=O)C2=C(C1)c1c(ccc3ccccc13)NC2c1cn(Cc2ccc(Cl)cc2)c2ccccc12 (stereo unspecified)
> 100 µM: M14 melanoma | UACC-62 melanoma | 786-0 renal | T-47D breast | DU-145 prostate | HOP-62 NSCLC | HL-60(TB) leukemia | EKVX NSCLC | NCI-H522 lung | NCI-H460 lung | OVCAR-4 ovarian | OVCAR-8 ovarian | BT-549 breast | COLO 205 colon | ACHN renal | SK-MEL-2 melanoma | HT29 colon | LOX IMVI melanoma | A549 NSCLC | MCF7 breast | SNB-19 CNS | MDA-MB-435 | SF-539 CNS | MOLT-4 leukemia | UO-31 renal | SF-268 CNS | SK-MEL-5 melanoma | HS 578T breast | K-562 leukemia | SR leukemia | RPMI-8226 leukemia | CCRF-CEM leukemia | SNB-75 CNS | PC-3 prostate | HOP-92 NSCLC | SK-OV-3 ovarian | IGROV1 ovarian | KM12 colon | MDA-MB-231 breast | MDA-N | SF-295 CNS | OVCAR-3 ovarian | OVCAR-5 ovarian | SW-620 colon | TK-10 renal | NCI-H23 lung | CAKI-1 renal | SN12C renal | U251 CNS | HCT-15 colon | HCT-116 colon | NCI/ADR-RES ovarian | UACC-257 melanoma

Cc1cc(C)nc(NS(=O)(=O)c2ccc(Nc3c4ccccc4nc4c(C(=O)NCCCN(CCO)CCO)cccc34)cc2)n1
> 100 µM: T-47D breast | DU-145 prostate | EKVX NSCLC | OVCAR-4 ovarian | OVCAR-8 ovarian | ACHN renal | HT29 colon | A549 NSCLC | MCF7 breast | SNB-19 CNS | MOLT-4 leukemia | UO-31 renal | SF-268 CNS | K-562 leukemia | SR leukemia | PC-3 prostate | HOP-92 NSCLC | SK-OV-3 ovarian | IGROV1 ovarian | SF-295 CNS | OVCAR-3 ovarian | OVCAR-5 ovarian | A498 renal | TK-10 renal | NCI-H23 lung | CAKI-1 renal | SN12C renal | U251 CNS | HCT-15 colon | NCI/ADR-RES ovarian | UACC-257 melanoma
30.7 µM: KM12 colon
44 µM: NCI-H460 lung
99.2 µM: M14 melanoma
46.1 µM: LOX IMVI melanoma
88.6 µM: MDA-MB-231 breast
33.6 µM: MALME-3M melanoma | HCC-2998 colon | SW-620 colon
27.6 µM: BT-549 breast
79.6 µM: RPMI-8226 leukemia
60.4 µM: UACC-62 melanoma
23.1 µM: SNB-75 CNS
69.7 µM: CCRF-CEM leukemia
31.2 µM: SK-MEL-28 melanoma
38.6 µM: HL-60(TB) leukemia
73.5 µM: HOP-62 NSCLC
83.7 µM: MDA-N
65.5 µM: HS 578T breast
34.8 µM: SK-MEL-2 melanoma | SK-MEL-5 melanoma
28.2 µM: NCI-H522 lung
40.6 µM: MDA-MB-435
34.3 µM: COLO 205 colon
